The subject of one test is HL-60 cells. In words: Bead-based miRNA expression profiling of HL-60 cells treated with all-trans retinoic acid. To be noted: 1 μM all-trans retinoic acid, 1, 3 and 5 days. The test is classed as cell-based, human. The procedure: Details of sample information are available in Table 9. Total RNAs were prepared from tissues or cell lines using TRIzol (INVITROGEN™, Carlsbad, Calif.), as described (Ramaswamy et al., 2001), and in compliance with IRB protocols. Leukemia bone marrow mononuclear cells were collected from patients treated at ST. JUDE […]′S […] HOSPITAL™ and at DANA-FARBER CANCER […]™ and their immunophenotype and genotype determined as previously described (Ferrando et al., 2002; Yeoh et al., 2002). Normal mouse lung and mouse lung cancer samples were collected from KRasLA1 mice, and genotyped as described (Johnson et al., 2001). Lungs from four- to five-month old mice were inflated with phosphate-buffered saline prior to removal. Individual lung tumors and normal lungs were dissected and immediately frozen on dry ice before RNA preparation. HL-60 cells were plated at 1.5×10^5 cell/ml and induced to differentiate by 1 μM all-trans retinoic acid (SIGMA™, St. Louis, Mo.; in ethanol). […]
miRNA capture probes were 5′-amino-modified oligonucleotides with a 6-carbon linker (IDT). […] Median fluorescence intensity values were measured.
Profiling data were first scaled according to the post-labeling-controls and then the pre-labeling-controls, in order to normalize readings from different probe/bead sets for the same sample, and to normalize for the labeling efficiency, as detailed in Materials and Methods of Example 3. […]

The subject of test [1] is HL-60 acute myeloblastic leukemia cells. To be noted: treatment during a course of 5 days (Stegmaier et al., 2004); cited from earlier work.

Each structure is given as a SMILES string. Entries after “also recorded” stand apart in the source; their conditions may differ.

Consider `CC1=C(/C=C/C(C)=C/C=C/C(C)=C/C(=O)O)C(C)(C)CCC1` [tretinoin, all-trans-retinoic acid], for which the results for the “miRNA expression in HL-60 cells” value in the test on HL-60 cells and in the test with HL-60 cells (listed as ATRA) were “induction of many miRNAs coincident with differentiation” and “increased expression of many miRNAs”, respectively. For the same molecule, the “differentiation of HL-60 cells” value in test [1] was “potent inducer of neutrophilic differentiation; also recorded: differentiate with increasing neutrophil characteristics”.

The values are drawn from patent publication US20110015080A1, “Solution-based methods for RNA expression profiling” (MASSACHUSETTS INSTITUTE OF TECHNOLOGY, priority 2005, published 2011).
